Structures can show the parent of a compound that is named as a salt. Where two headings read alike, the source gives them in different places.
Columns and labels:
5-HT1A receptors = target: T1, 5-HT1A receptors (Rattus norvegicus, UniProt P19327); test: Inhibition of 3H-8-OH-DPAT binding at 5-HT1A in vitro (rat cerebral cortex synaptosomal membranes); parameters: species or system Male Sprague-Dawley rats (cerebral cortex)
T1 construct: synaptosomal membranes isolated from cerebral cortex; from tissue; host or cells: cerebral cortex of male Sprague-Dawley rats, crude synaptosomal membranes
T1 sequence (P19327 1-422): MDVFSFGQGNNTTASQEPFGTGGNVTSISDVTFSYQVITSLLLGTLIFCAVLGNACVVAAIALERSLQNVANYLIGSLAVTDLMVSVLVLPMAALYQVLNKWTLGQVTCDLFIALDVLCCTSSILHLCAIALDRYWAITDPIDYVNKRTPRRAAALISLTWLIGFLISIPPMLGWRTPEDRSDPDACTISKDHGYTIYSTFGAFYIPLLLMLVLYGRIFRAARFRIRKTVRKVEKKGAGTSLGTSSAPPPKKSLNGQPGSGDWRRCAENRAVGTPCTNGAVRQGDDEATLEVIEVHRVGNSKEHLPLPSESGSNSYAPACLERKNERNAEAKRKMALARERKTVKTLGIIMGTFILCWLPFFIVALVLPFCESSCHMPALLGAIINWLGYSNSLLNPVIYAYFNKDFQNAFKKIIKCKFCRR
Description: This general procedure is set forth in Wong et al., J. Neural Transm. 71:207-218 (1988).
Male Sprague-Dawley rats (110-150 g) from Harlan Industries (Cumberland, Ind.) were fed a Purina Chow ad libitum for at least 3 days before being used in the studies. Rats were killed by decapitation. The brains were rapidly removed, and the cerebral cortices were dissected out at 4° C.
Brain tissues were homogenized in 0.32M sucrose. After centrifugation at 1000×g for 10 min and then at 17000×g for 20 min, a crude synaptosomal fraction was sedimented. The pellet was suspended in 100 vol of 50 mM Tris-HCl, pH 7.4, incubated at 37° C. for 10 min, and centrifuged at 50000×g for 10 min. The process was repeated and the final pellet was suspended in ice-chilled 50 mM Tris-HCl, pH 7.4. By the radioligand binding method, sites specifically labeled by tritiated 8-hydroxy-2-dipropylamino1,2,3,4-tetrahydronaphthalene (^3 H-8-OH-DPAT) have been identified as 5-HT1A receptors.
Binding of (hu 3H-8-OH-DPAT) was performed according to the previously described method [Wong et. al., J. Neural Transm. 64:251-269 (1985)]. Briefly, synaptosomal membranes isolated from cerebral cortex were incubated at 37° C. for 10 min. in 2 ml of 50 mM Tris-HCl, pH 7.4; 10 μM pargyline; 0.6 mM ascorbic acid; and 0.4 nM ^3 H-8-OH-DPAT. Binding was terminated by filtering samples under reduced pressure through glass fiber (GFB) filters. The filters were washed twice with 5 ml of ice cold buffer and placed in scintillation vials with 10 ml of PCS (Amersham/Searle) scintillation fluid. Radioactivity was measured with a liquid scintillation spectrometer. Unlabeled 8-OH-DPAT at 10 μM was also included in separate samples to establish non-specific binding. Specific binding of ^3 H-8-OH-DPAT is defined as the difference of radioactivity bound in the absence and in the presence of 10 μM unlabeled 8-OH-DPAT.

[1] = Effectiveness by subcutaneous (s.c.) administration; format: in vivo; conditions: for minimal effective dose: sc, read-out: minimum effective dose when administered subcutaneously
[2] = system: 5-hydroxyindoleacetic acid (5-HIAA), a metabolite of 5-HT, in whole brain; test: Effectiveness by oral administration: decrease in brain concentration of 5-HIAA; format: in vivo, male Sprague-Dawley rats; conditions: p.o.; for minimal effective dose: Rattus norvegicus, po, 2 h, read-out: minimum effective dose when administered orally; for Percent Reduction over Control (5-HIAA) / 5-HIAA Concentration in Whole Brain: 2 hours; for 5-HIAA Concentration in Whole Brain: control 1.67 ± 0.08
Description: The activity of compounds of this invention when administered orally was determined and compared with literature compounds structurally related to the compounds of this invention. Thus, the test compound was administered to male Sprague-Dawley rats orally (p.o.), five rats being used in each test group. The rats were sacrificed two hours following p.o. administration, and the brain concentration of 5-hydroxyindoleacetic acid (5-HIAA), a metabolite of 5-HT, was measured.

[3] = Hygroscopicity observed on isolation of the salt; format: physicochemical; conditions: fumarate salt, recrystallized from ethanol/diethyl ether
Description: To a solution of water (60 mL) which contains methanesulfonic acid (0.16 mL, 2.33 mMol) was added 2-di-propylamino-8-methylthio-1,2,3,4-tetrahydronaphthalene (630 mg, 2.33 mMol). To this solution was added a solution of sodium metaperiodate (550 mg, 2.57 mMol) in water (10 mL), and the reaction mixture was stirred for two days at room temperature. The reaction mixture was made basic (NH4 OH) and extracted with dichloromethane. The organic extracts were combined, dried (Na2 SO4) and concentrated in vacuo to give the crude title compound as a light yellow oil. Purification by flash chromatography (3% methanol in dichloromethane+tr. NH4 OH) gave the desired product (580 mg, 85%) as a colorless oil. The fumarate salt was formed. […] Drying in a vacuum dessicator (60° C., 18 hours) gave a colorless glass (260 mg, m.p. =63° C.).

CCCN(CCC)[C@@H]1CCc2cccc(SC)c2[C@@H]1C (relative stereo) [Example 8, cis-1-Methyl-2-di-n-propylamino-8-thiomethyl-1,2,3,4-tetrahydronaphthalene]
IC50 (5-HT1A receptors; 0.4 nM 3H-8-OH-DPAT, rat cerebral cortex synaptosomal membranes, 37° C., 10 min, pH 7.4, read-out: IC50, 5HT1a (concentration required to inhibit the binding of 3H-8-OH-DPAT by 50%)): 297 nM

CCCN(CCC)C1CCc2cccc(SC)c2C1 (stereo not drawn) [Example 1, 2-Di-n-propylamino-8-thiomethyl1,2,3,4-tetrahydronaphthalene]
IC50 (5-HT1A receptors): 0.3 nM
minimal effective dose [1]: ~0.3 mg/kg
potency relative to 8-OH-DPAT, subcutaneous ([1]; vs 8-OH-DPAT): about ten-fold less potent
minimal effective dose [2]: ~1 mg/kg
Percent Reduction over Control (5-HIAA) ([2]; 0.1 mg/Kg): 0%
5-HIAA Concentration in Whole Brain ([2]; 0.1 mg/Kg): 1.56 ± 0.04 nmol/g
Percent Reduction over Control (5-HIAA) ([2]; 1 mg/Kg): 13%
5-HIAA Concentration in Whole Brain ([2]; 1 mg/Kg): 1.45 ± 0.03 nmol/g
Percent Reduction over Control (5-HIAA) ([2]; 10 mg/Kg): 25%
5-HIAA Concentration in Whole Brain ([2]; 10 mg/Kg): 1.25 ± 0.06 nmol/g
minimum effective dose relative to 8-OH-DPAT, oral ([2]; vs 8-OH-DPAT): about ten-fold less

CCCN(CCC)C1CCc2cccc(SCC)c2C1 (stereo not drawn) [Example 2, 2-Di-n-propylamino-8-thioethyl-1,2,3,4-tetrahydronaphthalene]
IC50 (5-HT1A receptors): 30.7 nM

CCCN(CCC)C1CCc2cccc(Sc3ccccc3)c2C1 (stereo not drawn) [Example 3, 2-Di-n-propylamino-8-thiophenyl-1,2,3,4-tetrahydronaphthalene]
IC50 (5-HT1A receptors): 22.2 nM

CCCN(CCC)C1CCc2cccc(SCc3ccccc3)c2C1 (stereo not drawn) [Example 4, 2-Di-n-propylamino-8-thiobenzyl-1,2,3,4-tetrahydronaphthalene]
IC50 (5-HT1A receptors): 2.8 nM

CCCN(CCC)C1CCc2cccc([S+](C)[O-])c2C1 (stereo not drawn) [Example 5, 2-Di-n-propylamino-8-methylsulfinyl-1,2,3,4-tetrahydronaphthalene]
IC50 (5-HT1A receptors): 71.1 nM
hygroscopicity [3]: extremely hygroscopic

CCCN(CCC)C1CCc2cccc(S(C)(=O)=O)c2C1 (stereo not drawn) [Example 6, 2-Di-n-propylamino-8-methylsulfonyl-1,2,3,4-tetrahydronaphthalene]
IC50 (5-HT1A receptors): 10 nM

CSc1cccc2c1CC(N(C)C)CC2 (stereo not drawn) [Example 7, 2-Dimethylamino-8-thiomethyl-1,2,3,4-tetrahydronaphthalene]
IC50 (5-HT1A receptors): 21 nM

CCCN(CCC)C1CCc2cccc(O)c2C1 (stereo not drawn) [Example 8-OH-DPAT, 8-hydroxy-2-dipropylamino1,2,3,4-tetrahydronaphthalene, reference compound]
minimal effective dose [1]: ~0.03 mg/kg
minimal effective dose [2]: ~10 mg/kg
Percent Reduction over Control (5-HIAA) ([2]; 0.1 mg/Kg): 0%
5-HIAA Concentration in Whole Brain ([2]; 0.1 mg/Kg): 1.62 ± 0.07 nmol/g
Percent Reduction over Control (5-HIAA) ([2]; 1 mg/Kg): 0%
5-HIAA Concentration in Whole Brain ([2]; 1 mg/Kg): 1.75 ± 0.05 nmol/g
Percent Reduction over Control (5-HIAA) ([2]; 10 mg/Kg): 16%
5-HIAA Concentration in Whole Brain ([2]; 10 mg/Kg): 1.40 ± 0.06 nmol/g

CCCN(CCC)C1CCc2cccc(Sc3ccc(C)cc3)c2C1 (stereo not drawn) [Example 9]
IC50 (5-HT1A receptors): 59 nM

CCCN(CCC)C1CCc2cccc(Sc3ccccn3)c2C1 (stereo not drawn) [Example 10]
IC50 (5-HT1A receptors): 9 nM

CCCN(CCC)C1COc2cccc(SC)c2C1 (stereo not drawn) [Example 11, 3-(Di-n-propylamino)-5-methylthio-chromane hydrochloride]
IC50 (5-HT1A receptors): 2.5 nM

Reference: patent US5637624A, “Ring-substituted 2-amino-1,2,3,4-tetrahydronaphthalenes and 3-aminochromanes” (Eli Lilly and Company, priority 1993, dated 1997)
